Reference: the NIST ThermoML archive (doi:10.1021/je060271a)
± gives the expanded uncertainty stated by the source.

Details: 303.15 K, Liquid, Vibrating tube method

CCCCCC(=O)OCC(COC(=O)CCCCC)(COC(=O)CCCCC)COC(=O)CCCCC [pentaerythritol tetrahexanoate]
Details | mass density [kg/m3]
12760 kPa | 996.5 ± 1.2
12780 kPa | 996.4 ± 1.2
12799 kPa | 996.4 ± 1.2
12822 kPa | 996.5 ± 1.2
12861 kPa | 996.4 ± 1.2
12903 kPa | 996.4 ± 1.2
12922 kPa | 996.5 ± 1.2
12946 kPa | 996.6 ± 1.2
12965 kPa | 996.4 ± 1.2
12985 kPa | 996.5 ± 1.2
13005 kPa | 996.5 ± 1.2
13307 kPa | 996.6 ± 1.2
13327 kPa | 996.7 ± 1.2
13352 kPa | 996.8 ± 1.2
13373 kPa | 996.7 ± 1.2
13394 kPa | 996.7 ± 1.2
13419 kPa | 996.7 ± 1.2
13439 kPa | 996.8 ± 1.2
13465 kPa | 996.9 ± 1.2
13486 kPa | 996.8 ± 1.2
13507 kPa | 996.8 ± 1.2
13533 kPa | 996.8 ± 1.2
13554 kPa | 996.8 ± 1.2
13576 kPa | 996.7 ± 1.2
13598 kPa | 996.9 ± 1.2
13624 kPa | 996.9 ± 1.2
13645 kPa | 996.9 ± 1.2
13671 kPa | 997 ± 1.2
13693 kPa | 996.8 ± 1.2
13715 kPa | 996.9 ± 1.2
13737 kPa | 997 ± 1.2
13763 kPa | 997 ± 1.2
13786 kPa | 997 ± 1.2
13808 kPa | 997 ± 1.2
13835 kPa | 996.9 ± 1.2
13857 kPa | 997.1 ± 1.2
13880 kPa | 997 ± 1.2
13902 kPa | 997 ± 1.2
13929 kPa | 997 ± 1.2
13952 kPa | 997.1 ± 1.2
13975 kPa | 997.1 ± 1.2
14002 kPa | 997.2 ± 1.2
14025 kPa | 997 ± 1.2
14052 kPa | 997.1 ± 1.2
14098 kPa | 997.1 ± 1.2
14126 kPa | 997.1 ± 1.2
14149 kPa | 997.1 ± 1.2
14174 kPa | 997.2 ± 1.2
14198 kPa | 997.1 ± 1.2
14222 kPa | 997.2 ± 1.2
14250 kPa | 997.2 ± 1.2
14273 kPa | 997.2 ± 1.2
14301 kPa | 997.2 ± 1.2
14324 kPa | 997.3 ± 1.2
14348 kPa | 997.3 ± 1.2
14371 kPa | 997.4 ± 1.2
14400 kPa | 997.4 ± 1.2
14423 kPa | 997.3 ± 1.2
14447 kPa | 997.4 ± 1.2
14476 kPa | 997.4 ± 1.2
14499 kPa | 997.4 ± 1.2
14522 kPa | 997.3 ± 1.2
14545 kPa | 997.5 ± 1.2
14569 kPa | 997.4 ± 1.2
14596 kPa | 997.5 ± 1.2
14620 kPa | 997.5 ± 1.2
14643 kPa | 997.6 ± 1.2
14671 kPa | 997.4 ± 1.2
14695 kPa | 997.4 ± 1.2
14722 kPa | 997.4 ± 1.2
14746 kPa | 997.6 ± 1.2
14770 kPa | 997.6 ± 1.2
14798 kPa | 997.6 ± 1.2
14823 kPa | 997.5 ± 1.2
14847 kPa | 997.5 ± 1.2
14871 kPa | 997.6 ± 1.2
14900 kPa | 997.6 ± 1.2
15031 kPa | 997.7 ± 1.2
15056 kPa | 997.7 ± 1.2
15080 kPa | 997.7 ± 1.2
15110 kPa | 997.8 ± 1.2
15293 kPa | 997.8 ± 1.2
15647 kPa | 998.1 ± 1.2
15670 kPa | 998.2 ± 1.2
15694 kPa | 998.1 ± 1.2
15716 kPa | 998 ± 1.2
15743 kPa | 998.1 ± 1.2
15766 kPa | 998.1 ± 1.2
15789 kPa | 998 ± 1.2
15816 kPa | 998.1 ± 1.2
15838 kPa | 998.2 ± 1.2
15888 kPa | 998.2 ± 1.2
15911 kPa | 998.2 ± 1.2
15933 kPa | 998.3 ± 1.2
15961 kPa | 998.4 ± 1.2
15983 kPa | 998.3 ± 1.2
16011 kPa | 998.3 ± 1.2
16034 kPa | 998.3 ± 1.2
16056 kPa | 998.4 ± 1.2
16083 kPa | 998.3 ± 1.2
16106 kPa | 998.4 ± 1.2
16127 kPa | 998.2 ± 1.2
16149 kPa | 998.4 ± 1.2
16175 kPa | 998.4 ± 1.2
16197 kPa | 998.3 ± 1.2
16218 kPa | 998.4 ± 1.2
16244 kPa | 998.5 ± 1.2
16266 kPa | 998.4 ± 1.2
16288 kPa | 998.4 ± 1.2
16313 kPa | 998.4 ± 1.2
16335 kPa | 998.5 ± 1.2
16357 kPa | 998.5 ± 1.2
16384 kPa | 998.5 ± 1.2
16406 kPa | 998.7 ± 1.2
16427 kPa | 998.5 ± 1.2
16447 kPa | 998.5 ± 1.2
16471 kPa | 998.6 ± 1.2
16491 kPa | 998.5 ± 1.2
16512 kPa | 998.6 ± 1.2
16532 kPa | 998.5 ± 1.2
16557 kPa | 998.7 ± 1.2
16578 kPa | 998.7 ± 1.2
16599 kPa | 998.5 ± 1.2
16624 kPa | 998.6 ± 1.2
16644 kPa | 998.7 ± 1.2
16666 kPa | 998.7 ± 1.2
16687 kPa | 998.7 ± 1.2
16708 kPa | 998.5 ± 1.2
16732 kPa | 998.7 ± 1.2
16752 kPa | 998.7 ± 1.2
16772 kPa | 998.7 ± 1.2
16796 kPa | 998.7 ± 1.2
16840 kPa | 998.8 ± 1.2
16860 kPa | 998.9 ± 1.2
16880 kPa | 998.8 ± 1.2
16904 kPa | 998.8 ± 1.2
16924 kPa | 998.8 ± 1.2
16945 kPa | 998.9 ± 1.2
16966 kPa | 998.9 ± 1.2
16990 kPa | 998.8 ± 1.2
17010 kPa | 998.9 ± 1.2
17035 kPa | 999 ± 1.2
17056 kPa | 999 ± 1.2
17077 kPa | 999 ± 1.2
17098 kPa | 999 ± 1.2
